{"source": "patent US20200383983A1", "about": "“CGRP ANTAGONISTS FOR THE TREATMENT OF MEDICATION OVERUSE HEADACHE, POST-TRAUMATIC HEADACHE, POST-CONCUSSION SYNDROME AND VERTIGO” (Allergan Sales, LLC, priority 2019, published 2020)", "key": {"[1]": {"conditions": "stated generally, small molecules compared with monoclonal antibodies; cited from earlier work"}, "[2]": {"assay": "Case scenario: patient with post-traumatic headache (PTH), subjective pain rating", "type": "in vivo, human", "conditions": "for pain rating at worst, subjective rating scale of zero (no pain) to 10 (worst pain): before treatment 10; for pain rating at best, subjective rating scale of zero (no pain) to 10 (worst pain): before treatment eight; for pain rating on average, subjective rating scale of zero (no pain) to 10 (worst pain): before treatment nine", "from_the_text": "(§1) The following non-limiting examples provide those of ordinary skill in the art with possible case scenarios and specific methods to treat conditions within the scope of the present disclosure and are not intended to limit the scope of the disclosure.\nA person complains of right-sided frontal headaches. The patient stated the headaches began 3 months ago after accidentally being hit in the face at the right frontal, maxillary, and zygomatic bones with a heavy instrument. They deny any loss of consciousness at the time of the incident and describes the pain as a “constant achy” to “stabbing” pain primarily over the right eye and right zygomatic bone. They complain of intermittent blurred vision when the pain becomes “stabbing.” They also complain of intermittent tinnitus. On a subjective rating scale of zero (no pain) to 10 (worst pain), the patient rates their pain as eight at best, nine on average, and 10 at worst. Results from a radiographic scan of the skull, CT scan of the brain, and MRI scan of the brain and cervical spine are normal. Results from slit lamp and neurologic testing are also normal. The patient is diagnosed to have PTH. The patient can be treated with ubrogepant at a dose of 100 mg, once a day. The treatment with ubrogepant can reduce the pain experienced by the patient and the patient can rate their pain as five at best, six on average, and nine at worst.\nA person complains of right-sided frontal headaches. The patient stated the headaches began 3 months ago after accidentally being hit in the face at the right frontal, maxillary, and zygomatic bones with a heavy instrument. They deny any loss of consciousness at the time of the incident and describes the pain as a “constant achy” to “stabbing” pain primarily over the right eye and right zygomatic bone. They complain of intermittent blurred vision when the pain becomes “stabbing.” They also complain of intermittent tinnitus. On a subjective rating scale of zero (no pain) to 10 (worst pain), the patient rates their pain as eight at best, nine on average, and 10 at worst. Results from a radiographic scan of the skull, CT scan of the brain, and MRI scan of the brain and cervical spine are normal. Results from slit lamp and neurologic testing are also normal. The patient is diagnosed to have PTH. The patient can be treated with erenumab at a dose of 70 mg by subcutaneous administration. A month after the erenumab administration, the patient can rate their pain as five at best, six on average, and nine at worst."}, "[3]": {"assay": "Case scenario: patient with chronic migraine and medication overuse headache, weaning off Fiorinal", "type": "in vivo, human", "from_the_text": "as §1\n[…] This responded well to Excedrin at that time. As they became older their headaches became more frequent and by the time they were in their late 20's they had headache on more than half the days of the month. Excedrin was no longer effective, and their primary care physician prescribed Fiorinal (aspirin, caffeine and barbiturate compound). […] […] Their primary care physician, on routine blood work noted: worsening renal and liver function tests. The patient reported depression and disability related to their headache disorder. They could not work or participate in family events. They were referred to a neurologist who specialized in headache disorders. They diagnosed them with episodic migraine without aura that had transformed to chronic migraine with associated medication overuse headache. They also diagnosed end organ damage with hepatic and renal damage secondary to analgesic overuse. They recommended a preventive treatment and that they taper off of Fiorinal. The patient started Topiramate as a migraine preventive and despite their best efforts they were unable to wean off of Fiorinal, due to breakthrough headache. They returned to the Neurologist and they prescribed Ubrogepant 50 mg daily for 10 days. […] They continued Topiramate treatment and used Ubrogepant 50 mg a day as needed for breakthrough headache. […] They were able to return to work and to participate in family events."}, "[4]": {"assay": "Case scenario: patient with migraine without aura and medication overuse headache (triptan overuse)", "type": "in vivo, human", "conditions": "50 mg once a day, patient averaging 25 doses of oral triptan per month", "from_the_text": "as §1\nA person visits a headache clinic with almost daily migraine attacks. Their migraines have been ongoing since they were […]. […] Eventually, however, the migraine attacks became longer, lasting up to 3 or 4 days and forcing them to take 4 or 5 doses of triptan per attack. Currently, they are averaging 25 doses of oral triptan per month. They are diagnosed with migraine without aura and medication overuse headache. They are treated with ubrogepant at a dose of 50 mg, once a day."}, "[5]": {"conditions": "70 mg subcutaneous, a month after administration"}}}
{"molecule": "C[C@@H]1[C@H](c2c(F)ccc(F)c2F)C[C@H](NC(=O)c2cnc3c(c2)C[C@@]2(C3)C(=O)Nc3ncccc32)C(=O)N1CC(F)(F)F", "note": "[atogepant]", "values": [{"measurement": "half-life", "setting": "[1]", "result": "measured in hours"}]}
{"molecule": "N[C@@H]1c2cccnc2[C@H](OC(=O)N2CCC(n3c(=O)[nH]c4ncccc43)CC2)CC[C@H]1c1cccc(F)c1F", "note": "[rimegepant]", "values": [{"measurement": "half-life", "setting": "[1]", "result": "measured in hours"}]}
{"molecule": "C[C@@H]1[C@H](c2ccccc2)C[C@H](NC(=O)c2cnc3c(c2)C[C@@]2(C3)C(=O)Nc3ncccc32)C(=O)N1CC(F)(F)F", "note": "[ubrogepant]", "values": [{"measurement": "half-life", "setting": "[1]", "result": "measured in hours"}, {"measurement": "pain rating at worst, subjective rating scale of zero (no pain) to 10 (worst pain)", "setting": "[2]; 100 mg once a day", "result": "nine"}, {"measurement": "pain rating at best, subjective rating scale of zero (no pain) to 10 (worst pain)", "setting": "[2]; 100 mg once a day", "result": "five"}, {"measurement": "pain rating on average, subjective rating scale of zero (no pain) to 10 (worst pain)", "setting": "[2]; 100 mg once a day", "result": "six"}, {"measurement": "need of as-needed use for breakthrough headache", "setting": "[3]; 50 mg a day as needed, after 3 months", "result": "once or twice a month"}, {"measurement": "effect on migraine attacks and recurrence", "setting": "[3]; 50 mg a day as needed, continued Topiramate", "result": "effectively ended their migraine attacks and they had no recurrence requiring re-treatment"}, {"measurement": "need of as-needed use for breakthrough headache", "setting": "[3]; 50 mg a day as needed, first month after weaning off Fiorinal", "result": "twice a week"}, {"measurement": "weaning off the overused medication (Fiorinal)", "setting": "[3]; 50 mg daily for 10 days, with Topiramate as preventive", "result": "able to successfully wean off of Fiorinal"}, {"measurement": "intensity and frequency of migraine", "setting": "[4]", "result": "can reduce the intensity and frequency of migraine"}]}
{"molecule": "erenumab (antibody, chains of the INN, looked up, V domains shown) VH: QVQLVESGGGVVQPGRSLRLSCAASGFTFSSFGMHWVRQAPGKGLEWVAVISFDGSIKYSVDSVKGRFTISRDNSKNTLFLQMNSLRAEDTAVYYCARDRLNYYDSSGYYHYKYYGMAVWGQGTTVTVSS VL: QSVLTQPPSVSAAPGQKVTISCSGSSSNIGNNYVSWYQQLPGTAPKLLIYDNNKRPSGIPDRFSGSKSGTSTTLGITGLQTGDEADYYCGTWDSRLSAVVFGGGTKLTVL", "values": [{"measurement": "pain rating at worst, subjective rating scale of zero (no pain) to 10 (worst pain)", "setting": "[2]; [5]", "result": "nine"}, {"measurement": "pain rating at best, subjective rating scale of zero (no pain) to 10 (worst pain)", "setting": "[2]; [5]", "result": "five"}, {"measurement": "pain rating on average, subjective rating scale of zero (no pain) to 10 (worst pain)", "setting": "[2]; [5]", "result": "six"}]}
